In the assay the target is hMC2 receptor (Homo sapiens, UniProt Q01718). Description: hMC2 membrane binding assay ([125I]ACTH (1-39) Tyr23, SPA). On the set-up: scale not given here. Conditions: crude hMC2R membranes from CRE-bla-CHO-K1 cells expressing hMC2 receptor and hMRAP; [125I]ACTH (1-39) Tyr23 0.2 nM; 1.5 hours at room temperature; read-out: MC2R binding potency. The method in brief: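 CRE-bla-CHO-K1 membranes co-expressing hMC2 receptor and hMRAP, preincubated with WGA PVT SPA beads in pH 7.4 HEPES/MgCl2/CaCl2/0.2% BSA buffer. Compounds (typically 0–10,000 nM final) compete with 0.2 nM [125I]ACTH(1-39) Tyr23 for 1.5 h at room temperature. SPA counts give Ki by non-linear regression.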
Chain of hMC2 receptor (Q01718 whole entry): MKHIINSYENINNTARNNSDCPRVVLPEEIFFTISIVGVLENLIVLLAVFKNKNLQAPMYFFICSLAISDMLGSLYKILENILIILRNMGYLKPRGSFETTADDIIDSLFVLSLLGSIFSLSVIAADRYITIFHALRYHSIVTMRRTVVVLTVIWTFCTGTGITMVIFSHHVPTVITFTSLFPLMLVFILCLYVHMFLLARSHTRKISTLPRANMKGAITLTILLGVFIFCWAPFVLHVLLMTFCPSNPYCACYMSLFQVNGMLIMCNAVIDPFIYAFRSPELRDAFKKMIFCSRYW
Chain of hMC2 receptor (Q8TCY5 whole entry partner): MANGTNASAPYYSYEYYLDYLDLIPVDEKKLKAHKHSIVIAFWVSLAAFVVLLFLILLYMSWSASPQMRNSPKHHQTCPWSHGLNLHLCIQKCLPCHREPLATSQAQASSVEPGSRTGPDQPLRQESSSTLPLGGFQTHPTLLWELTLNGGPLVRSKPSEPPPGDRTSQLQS

In the case of `CCOc1ncccc1-c1ccc(N2CCN(C(=O)c3ccc(OC)cc3C(F)(F)F)C[C@H]2CC)c(C(=O)NCCN(C)C)n1` [Compound 1-169, N-[2-(dimethylamino)ethyl]-2′-ethoxy-5-[(2R)-2-ethyl-4-[4-methoxy-2-(trifluoromethyl)benzoyl]piperazin-1-yl]-[2,3′-bipyridine]-6-carboxamide], the Ki was less than 10 nM.

On to `CCOc1ncccc1-c1ccc(N2CCN(C(=O)C3(c4ccccc4)CCCC3)C[C@H]2CC)c(C(=O)N[C@@H]2CCNC2)n1` [Compound 1-352, 2′-ethoxy-5-[(2R)-2-ethyl-4-(1-phenylcyclopentanecarbonyl)piperazin-1-yl]-N-[(3R)-pyrrolidin-3-yl]-[2,3′-bipyridine]-6-carboxamide], for which the Ki is less than 10 nM.

For the compound `CCOc1ncccc1-c1ccc(N2CCN(C(=O)c3ccc(Cl)cc3Cl)C[C@H]2CC)c(C(=O)N[C@@H]2CCN(C)C2)n1` [Compound 1-259, 5-[(2R)-4-(2,4-dichlorobenzoyl)-2-ethylpiperazin-1-yl]-2′-ethoxy-N-[(3R)-1-methylpyrrolidin-3-yl]-[2,3′-bipyridine]-6-carboxamide], the Ki was less than 10 nM.

On to `CCOc1ncccc1-c1ccc(N2CCN(C(=O)c3ccc(Cl)cc3C#N)C[C@H]2CC)c(C(=O)N[C@@H]2CCN(C)C2)n1` [Compound 1-260, 5-[(2R)-4-(4-chloro-2-cyanobenzoyl)-2-ethylpiperazin-1-yl]-2′-ethoxy-N-[(3R)-1-methylpyrrolidin-3-yl]-[2,3′-bipyridine]-6-carboxamide], for which the Ki is less than 10 nM.

Regarding `CCOc1ncccc1-c1ccc(N2CCN(C(=O)O[C@@H](C(C)(C)C)C(F)(F)F)C[C@H]2CC)c(C(=O)NCC2CN(C)C2)n1` (single isomer, unassigned) [Compound 1-396, (2S)-1,1,1-trifluoro-3,3-dimethylbutan-2-yl (3R)-4-(2′-ethoxy-6-{[(1-methylazetidin-3-yl)methyl]carbamoyl}-[2,3′-bipyridin]-5-yl)-3-ethylpiperazine-1-carboxylate; or (2R)-1,1,1-trifluoro-3,3-dimethylbutan-2-yl (3R)-4-(2′-ethoxy-6-{[(1-methylazetidin-3-yl)methyl]carbamoyl}-[2,3′-bipyridin]-5-yl)-3-ethylpiperazine-1-carboxylate], the Ki is less than 10 nM.

For `CCOc1ccccc1-c1ccc(N2CCN(C(=O)N3CCC[C@H]3C(F)(F)F)C[C@H]2CC)c(C(=O)N[C@H]2CCNC2)n1` [Compound 1-343, 6-(2-ethoxyphenyl)-3-[(2R)-2-ethyl-4-[(2S)-2-(trifluoromethyl)pyrrolidine-1-carbonyl]piperazin-1-yl]-N-[(3S)-pyrrolidin-3-yl]pyridine-2-carboxamide], the Ki was less than 10 nM.

Turning to `CCOc1ncccc1-c1ccc(N2CCN(C(=O)C34CCC(C(F)(F)F)(CC3)C4)C[C@H]2CC)c(C(=O)NC2CN(C)C2)n1` [Compound 1-394, 2′-ethoxy-5-[(2R)-2-ethyl-4-[4-(trifluoromethyl)bicyclo[2.2.1]heptane-1-carbonyl]piperazin-1-yl]-N-(1-methylazetidin-3-yl)-[2,3′-bipyridine]-6-carboxamide], the Ki is less than 10 nM.

On to `CCOc1ncccc1-c1ccc(N2CCN(C(=O)c3ccc(Cl)cc3C(F)(F)F)C[C@H]2CC)c(C(=O)NCCc2cnc[nH]2)c1` [Compound 1-84, 2-[(2R)-4-[4-chloro-2-(trifluoromethyl)benzoyl]-2-ethylpiperazin-1-yl]-5-(2-ethoxypyridin-3-yl)-N-[2-(1H-imidazol-5-yl)ethyl]benzamide], for which the Ki is less than 10 nM.

On to `CCOc1ncccc1-c1ccc(N2CCN(C(=O)c3ccc(Cl)cc3C(F)(F)F)C[C@H]2CC)c(C(=O)NCCN2CCCC2)c1` [Compound 1-49, 2-[(2R)-4-[4-chloro-2-(trifluoromethyl)benzoyl]-2-ethylpiperazin-1-yl]-5-(2-ethoxypyridin-3-yl)-N-[2-(pyrrolidin-1-yl)ethyl]benzamide], for which the Ki is less than 10 nM.

Values taken from US10981894B2, “Melanocortin subtype-2 receptor (MC2R) antagonists and uses thereof” (Crinetics Pharmaceuticals, Inc., priority 2018, dated 2021).
